Measurements reported in US20100298214A1, “TREATMENT OF AUTOIMMUNE DISEASE” (MASSACHUSETTS INSTITUTE OF TECHNOLOGY, priority 2007, published 2010).

Legend:
[1] = tested on: NOD mice; conditions: cited from earlier work
[2] = molecular target: T1, CXCR4 (Homo sapiens, UniProt P61073); conditions: induction of internalization after binding; Liu et al., 2004; cited from earlier work
T1 construct: endogenous in cells; host or cells: human peripheral mononuclear cells (PBMCs)

[3] = tested on: prediabetic NOD mice
Procedure: (§1) NOD mice were obtained from Taconic Farms. Female NOD mice were used in all the studies and monitored for diabetes by checking urine glucose levels at least two times per week, starting around 12 weeks of age. Mice were considered diabetic when urinary glucose level reached 500 mg/dl, as measured with Diastix (Bayer Diagnostics). […] BALB/c mice were purchased from Jackson Laboratory. EA16NOD mice were obtained from Drs. Diane Mathis and Christopher Benoist. Cxcr4^fif Lck-Cre mice and littermate Cxcr4^−if Lck-Cre were on the mixed 129/C57BL/6 background and were generated by breeding Cxcr4^+if Lck-Cre mice. All mice were kept under specific pathogen free facilities. For AMD3100 treatment, prediabetic NOD mice were given AMD3100 (5 mg/kg) subcutaneously daily for the indicated lengths of time. For analysis of T cell distribution, mice were sacrificed at 2 hours after the last AMD3100 injection.
Single-cell suspensions were prepared from the spleen, lymph nodes (e.g., superficial cervical, brachial, axillary, inguinal, mesenteric, and pancreas-draining lymph nodes), and bone marrow (e.g., obtained by flushing two femurs and two tibias with cold RPMI 1640 medium containing 5% fetal calf serum [FCS]). All staining antibodies were purchased from BDbioscience, except anti-Foxp3, lineage markers (Lin), and c-Kit and Sea-1, which were from E-bioscience, Stem Cell Technologies, and Biolegend, respectively. Cells were stained in the presence of 2.5 μg/ml anti-FcR antibody in PBS containing 0.1% BSA and 0.1% NaN3 and analyzed on a FACScaliber or a LSR II or a FACSAria, collecting 10,000 to 1,000,000 live cells per sample. Analyses were carried out with Flowjo software. For analysis of LSK cells, 10% of total cells with low level of lineage marker expression were gated for further analysis of Sca-1 versus c-Kit expression profiles. Intracellular staining of Foxp3 and Ki67 was performed according to the manufacturer's instruction.
AMD3100 is a small molecule antagonist of CXCR4 (De Clercq, 2003, supra; incorporated herein by reference). […] Thus, prediabetic NOD mice were given AMD3100 (5 mg/kg) daily for 8 days, and the distribution and phenotype of T cells in their bone marrow were assayed.

[4] = tested on: prediabetic NOD mice; conditions: daily for 8 days (FIGS. 8A and 8B)
Procedure: as §1

[5] = tested on: NOD mice; test: Diabetes incidence monitored by urine glucose level; assay type: in vivo, mouse
Text: NOD mice were obtained from Taconic Farms. […] BALB/c mice were purchased from Jackson Laboratory. EA16NOD mice were obtained from Drs. Diane Mathis and Christopher Benoist. […] All mice were kept under specific pathogen free facilities.
To test whether continuous AMD3100 treatment can inhibit the development of diabetes, prediabetic NOD mice (15 weeks of age) were given AMD3100 daily for 14 weeks. PBS-treated NOD mice started to show evidence of diabetes at 16 weeks of age, and by 29 weeks of age, all mice developed diabetes (FIG. 8D).

[6] = tested on: sublethally irradiated male NOD mice; conditions: Aboumrad et al., 2007; cited from earlier work
[7] = treatment for 8 days (FIG. 10G)
[8] = treatment for 8 days (FIG. 10H)

T1 sequence (P61073 whole entry): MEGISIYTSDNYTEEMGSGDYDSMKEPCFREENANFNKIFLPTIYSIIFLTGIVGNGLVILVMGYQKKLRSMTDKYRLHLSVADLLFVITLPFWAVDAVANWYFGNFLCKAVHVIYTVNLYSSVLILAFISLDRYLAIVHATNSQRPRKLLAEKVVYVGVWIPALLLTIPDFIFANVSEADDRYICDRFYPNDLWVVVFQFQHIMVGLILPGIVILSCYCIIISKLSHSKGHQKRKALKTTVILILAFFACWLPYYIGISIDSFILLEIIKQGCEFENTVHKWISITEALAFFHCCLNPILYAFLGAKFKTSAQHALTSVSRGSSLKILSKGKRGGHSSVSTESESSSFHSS

G-CSF: granulocyte colony-stimulating factor, a known suppressor of CXCL12 expression
insulitis and diabetes ([1]; NOD mice, literature): reduced
onset of type I diabetes ([1]; NOD mice, literature): significantly delays

O=C1c2c(O)cc(O)cc2O[C@H](c2cc(O)c(O)c(O)c2)[C@H]1O [ampelopsin]
CXCR4 on the surface of human peripheral mononuclear cells (PBMCs) [2]: decrease

Cl.Cl.Cl.Cl.Cl.Cl.Cl.Cl.O.O.c1cc(CN2CCCNCCNCCCNCC2)ccc1CN1CCCNCCNCCCNCC1 [AMD3100, 1,1′-[1,4-phenylenebis(methylene)]-bis-1,4,8,11-tetraazacyclotetradecane octahydrochloride dihydrate]
proportion of CD4 T cells with the naïve phenotype (CD45RB^hi CD44^lo) in bone marrow ([3]; 5 mg/kg daily for 8 days (FIG. 5B)): preferentially reduced
proportion of both CD4 and CD8 T cells in the bone marrow ([3]; 5 mg/kg daily for 8 days, compared to PBS (FIG. 5A)): significantly reduced
percentage of HSC in the bone marrow ([3]; 8 days, compared to PBS-treated NOD mice, p=0.06 (FIG. 10D)): reduced
percentage of T cells that proliferated in the spleen and pancreas-draining lymph nodes ([3]; AMD3100 treatment of NOD mice): did not significantly affect
distribution of NKT cells, dendritic cells, or B cells ([3]; NOD mice following AMD3100 treatment (FIG. 6)): nor any change
percentages (mean±SE) of CD45RB^hi CD44^lo naïve T cells among TCR+CD4+ cells ([3]; bone marrow, prediabetic NOD mice 15-16 weeks of age, daily for 8 days, n=4, p<0.01 vs PBS): 24.8±3.2%
NKT cell distribution in various organs ([3]; prediabetic NOD mice, 8 days (FIG. 6)): does not affect
number of HSCs (Lin-Sca1+c-Kit+) in the bone marrow ([3]; treatment for 8 days (FIG. 7C)): significantly reduced
percentage of Foxp3+CD4+ Treg cells in the bone marrow [3, 7]: increased
percentages of Tregs in the pancreas-draining lymph node (PDLN) [3, 7]: increased significantly
percentages of Tregs in the spleen [3, 7]: increased significantly
number of Tregs in the spleen [3, 8]: increased significantly
total number of Tregs in the bone marrow [3, 8]: decreased
lymphocyte infiltration into the islets (insulitis) ([4]; prediabetic NOD mice 15 weeks of age): significantly reduced
peri-insulitis ([4]; prediabetic NOD mice): without affecting
time after termination of treatment at which mice began to develop diabetes ([5]; after three weeks of daily treatment): two weeks
diabetes incidence after termination of treatment ([5]; by 26 weeks of age, three weeks of daily treatment, same level as PBS-treated mice): 70%
mice that developed diabetes during continuous treatment ([5]; daily for 14 weeks from 15 weeks of age, up to 29 weeks of age (FIG. 8D)): none
mice that developed diabetes during treatment ([5]; daily for three weeks from 15-16 weeks of age, period between 17 and 20 weeks of age (FIG. 8C)): none
diabetes development in the transfer model [6]: promotes

CXCL12: chemokine (C-X-C motif) ligand 12, administered systemically (Yano et al., 2007)
diabetes on systemic administration ([1]; Yano et al., 2007): ameliorates
